Tests used:
[1] = system: Echinochloa crus-galli; experiment: Inhibition of shoot elongation in Echinochloa crus-galli (barnyard grass); type: functional, organism-based
[2] = Inhibition of Very long-chain fatty acid elongase in Echinochloa crus-galli (barnyard grass); settings: read-out: I50
[3] = system: Echinochloa crus-galli; experiment: Ratio of I50 for very long-chain fatty acid elongase in Echinochloa crus-galli (barnyard grass) to EC50 for shoot elongation inhibition in Echinochloa crus-galli (barnyard grass)

Q: With `CCOc1cc(Cl)c(CS(=O)(=O)C2=NOC(C)(C)C2)cc1Cl` [FENOXASULFONE] as the compound, how does the EC50 [1] read?
A: Its EC50 is 30 nM.

Q: What about the IC50 [2] of the same compound?
A: The IC50 was 300 nM.

Q: What about the Ratio [3] of the same compound?
A: The Ratio was 10.

Q: Which EC50 [1] does the source give for `Cn1nc(C(F)(F)F)c(CS(=O)(=O)C2=NOC(C)(C)C2)c1OC(F)F` [PYROXASULFONE] here?
A: Its EC50 is 30 nM.

Q: What about the IC50 [2] of the same compound?
A: Its IC50 is 300 nM.

Q: What about the Ratio [3] of the same compound?
A: Its Ratio is 10.

Reference: ChEMBL document CHEMBL3045099, “Action mechanism of isoxazoline-type herbicides” (J Pestic Sci, 2012)
